Laboratory results: US20260374739A1, “SMALL MOLECULAR WEIGHT CHEMICAL COMPOUND TO ANTAGONIZE EPH-EPHRIN TETRAMERIZATION AND INHIBIT BIDIRECTIONAL SIGNALING” (THE BOARD OF REGENTS OF THE UNIVERSITY OF TEXAS SYSTEM, priority 2022, published 2026)
Where “and” joins values, the source holds several entries; their conditions need not be identical. Equal entries are not always repeated. Entries after “also recorded” stand apart in the source; their conditions may differ. Where two headings read alike, the source gives them in different places. Marks after values point to notes of the source that are not given here.

Target: T1, EphrinB2-EphB4 (Homo sapiens, UniProt P54760)
T1 construct: soluble human EphB1-His, EphB2-His, and EphB4-His ectodomains; commercially available human EphrinB1-Fc (EB1), EphrinB2-Fc (EB2), and EphrinB3-Fc (EB3) ectodomain proteins; purchased
T1 sequence (P54760 16-539 limits assumed): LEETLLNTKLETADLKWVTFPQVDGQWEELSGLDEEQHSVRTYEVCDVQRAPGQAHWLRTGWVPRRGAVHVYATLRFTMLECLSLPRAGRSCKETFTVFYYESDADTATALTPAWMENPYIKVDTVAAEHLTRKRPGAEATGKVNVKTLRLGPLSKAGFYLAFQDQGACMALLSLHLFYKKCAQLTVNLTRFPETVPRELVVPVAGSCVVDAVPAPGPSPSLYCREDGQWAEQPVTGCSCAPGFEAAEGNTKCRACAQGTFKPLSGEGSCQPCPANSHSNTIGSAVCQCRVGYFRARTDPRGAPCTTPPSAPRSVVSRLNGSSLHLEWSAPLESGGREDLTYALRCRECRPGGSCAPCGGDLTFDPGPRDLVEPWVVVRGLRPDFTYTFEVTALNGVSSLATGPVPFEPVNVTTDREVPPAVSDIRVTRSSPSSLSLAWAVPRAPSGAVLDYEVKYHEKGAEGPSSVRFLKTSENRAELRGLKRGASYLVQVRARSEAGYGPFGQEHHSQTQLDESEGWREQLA
Test: Octet 80 sec association/500 sec dissociation, immobilized human EphrinB2-Fc binding to soluble human EphB4-His
Settings: for inhibition at 3.2 µM: 25 nM EphB4, 3.2 μM compound, A20-I as max control, 0* = less than 0, no inhibition; for EphB4 Inhibition Percent, Inhibition of Association ONLY: at 3.2 μM and 80 seconds; for EphB4 Inhibition Percent, Inhibition of Association ONLY / EphB4 Inhibition Percent, Inhibition of Association-Dissociation: immobilized human EphrinB2, 25 nM soluble human EphB4; for EphB4 Inhibition Percent, Inhibition of Association-Dissociation: at 3.2 μM and 580 seconds
Method in brief: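 EphrinB2-Fc captured on AHC biosensors, then soluble His-tagged EphB ectodomain (25 nM for % inhibition runs) associated 80 s and dissociated 500 s in PBS, 0.05% Tween-20, 1% DMSO ± compound. Compounds tested at 0.1–3.2 μM with a 10 μM max standard; IC50 from AUC of full traces or at 75 s and 135 s.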

[1] = EphB4, read-out: % Inhibition: Association + Dissociation (160 sec)
[2] = EphB4, read-out: % Inhibition: Association ONLY (80 sec)

Compound: Oc1c(I)cc(CN2CCOCC2)c2cccnc12 [Compound 7, 7-iodo-5-(morpholinomethyl)quinolin-8-ol]
- % Inhibited (AUC), Association + Dissociation (EphB4, 0-160 sec, 50 nM, 10 μM compound, Table 4): 26.5%
- inhibition at 3.2 µM [1]: 32.9%
- % Inhibited (AUC), Association (EphB4, 50 nM, 10 μM compound, Table 4): 13.3%
- inhibition (EphB4, 10 μM 2×HCl salt, read-out: % Inhibited (AUC), Association): 13.9%
- IC50 (EphB4, Association (75″), read-out: Absolute IC50): > 3200 nM
- IC50 (EphB4, Association (75″), read-out: Relative IC50): 1700 nM
- IC50 (EphB4, Association (AUC), read-out: Absolute IC50): > 3200 nM
- IC50 (EphB4, Association (AUC), read-out: Relative IC50): 1660 nM
- IC50 (EphB4, Dissociation (135″), read-out: Absolute IC50): 3020 nM
- IC50 (EphB4, Dissociation (135″), read-out: Relative IC50): 980 nM
- IC50 (EphB4, Full AUC, read-out: Absolute IC50): 1260 nM
- IC50 (EphB4, Full AUC, read-out: Relative IC50): 890 nM
- inhibition (EphB4, first 160 sec, 10 μM 2×HCl salt, read-out: % Inhibited (AUC), Association + Dissociation): 33.9%
- inhibition (EphB4, highest dose, typically 3.2 μM, read-out: Association (% Inhibited (AUC))): 15.4%
- inhibition (EphB4, highest dose, typically 3.2 μM, read-out: Association + Dissociation (% Inhibited (AUC))): 37%

Compound: Oc1c(Br)cc(CN2CCN(Cc3ccc(Br)cc3)CC2)c2cccnc12 [Compound 44, 7-bromo-5-((4-(4-bromobenzyl)piperazin-1-yl)methyl)quinolin-8-ol]
- inhibition at 3.2 µM [1]: 28.3%
- inhibition at 3.2 µM [2]: 4.9%

Compound: O=[N+]([O-])c1cc(CN2CCOCC2)c2cccnc2c1O [Compound 9, 5-(morpholinomethyl)-7-nitroquinolin-8-ol]
- less % inhibition activity toward EphrinB2-EphB4 (3.2 μM): approximately 20 fold
- selectivity among EphrinB2-EphB1/B2/B4 (3.2 μM, listed as A19-NO2): selectively inhibit EphrinB2-EphB2 and EphrinB2-EphB1 interactions, while sparing most of the EphrinB2-EphB4 interaction; also recorded: less action towards EphB4 but high specificity for EphB1 and EphB2
- inhibition of EphB4-EphrinB2 binding (association step, general): 0%
- EphB4 Inhibition Percent, Inhibition of Association ONLY: 0.6% and 0% and 8.2%

Compound: O=S1(=O)CCN(Cc2ccc(O)c3ncccc23)CC1 [Compound 15, 4-((8-hydroxyquinolin-1-ium-5-yl)methyl)thiomorpholin-4-ium 1,1-dioxide chloride]
- EphB4 Inhibition Percent, Inhibition of Association ONLY: 10.8%
- EphB4 Inhibition Percent, Inhibition of Association-Dissociation: 19.0%

Compound: Oc1ccc(CN2CCN(Cc3ccc(Br)cc3)CC2)c2cccnc12 [Compound 42, 5-((4-(4-bromobenzyl)piperazin-1-yl)methyl)quinolin-8-ol]
- selectivity among EphrinB2-EphB1/B2/B4 (3.2 μM): ability to selectively inhibit EphrinB2-EphB2 and EphrinB2-EphB1 interactions, while sparing the EphrinB2-EphB4 interaction
- inhibition at 3.2 µM [1]: 0%
- inhibition at 3.2 µM [2]: 0%

Compound: COc1ccccc1N1CCN(Cc2cc(Br)c(O)c3ncccc23)CC1 [Compound 70, 7-bromo-5-((4-(2-methoxyphenyl)piperazin-1-yl)methyl)quinolin-8-ol]
- inhibition at 3.2 µM [1]: 36.3%
- inhibition at 3.2 µM [2]: 15.1%

Compound: O=[N+]([O-])c1cc(CN2CCS(=O)(=O)CC2)c2cccnc2c1O [Compound 20, 4-((8-hydroxy-7-nitroquinolin-5-yl)methyl)thiomorpholine 1,1-dioxide]
- selectivity among EphrinB2-EphB1/B2/B4 (3.2 μM, listed as QTM-NO2): ability to selectively inhibit EphrinB2-EphB2 and EphrinB2-EphB1 interactions, while sparing the EphrinB2-EphB4 interaction; also recorded: less action towards EphB4 but high specificity for EphB1 and EphB2
- inhibition at 3.2 µM [1]: 0%
- inhibition at 3.2 µM [2]: 0%

Compound: COc1ccc2[nH]cc(C(=O)N3CCN(c4ccccc4OC)CC3)c2c1 [Compound 64, (5-methoxy-1H-indol-3-yl)(4-(2-methoxyphenyl)piperazin-1-yl)methanone]
- inhibition at 3.2 µM [1]: 0%
- inhibition at 3.2 µM [2]: 0%

Compound: Oc1ccc(CN2CCN(c3ccc(Br)cc3)CC2)c2cccnc12 [Compound 26, 5-((4-(4-bromophenyl)piperazin-1-yl)methyl)quinolin-8-ol]
- selectivity among EphrinB2-EphB1/B2/B4 (3.2 μM, listed as QPB4): ability to selectively inhibit EphrinB2-EphB2 and EphrinB2-EphB1 interactions, while sparing the EphrinB2-EphB4 interaction; also recorded: less action towards EphB4 but high specificity for EphB1 and EphB2
- EphB4 Inhibition Percent, Inhibition of Association ONLY: 0*%
- EphB4 Inhibition Percent, Inhibition of Association-Dissociation: 0*%

Compound: Oc1c(CN2CCCCC2)cc(Cl)c2cccnc12 [Compound 76, 5-chloro-7-(piperidin-1-ylmethyl)quinolin-8-ol, reference compound]
- EphB4 Inhibition Percent, Inhibition of Association ONLY: 17.9% and 11.6%
- EphB4 Inhibition Percent, Inhibition of Association-Dissociation: 34.5% and 29.6%

Compound: Oc1ccc(CN2CCCCC2)c2cccnc12 [Compound 68, 5-(piperidin-1-ylmethyl)quinolin-8-ol, reference compound]
- EphB4 Inhibition Percent, Inhibition of Association ONLY: 0*%
- EphB4 Inhibition Percent, Inhibition of Association-Dissociation: 5.8%

Compound: O=[N+]([O-])c1cc(CN2CCOCC2)c2cccnc2c1O [Compound 10, 4-((8-hydroxy-7-nitroquinolin-1-ium-5-yl)methyl)morpholin-4-ium chloride]
- EphB4 Inhibition Percent, Inhibition of Association ONLY: 0.1% and 0% and 4.1%
- EphB4 Inhibition Percent, Inhibition of Association-Dissociation: 9.0% and 0% and 5.9%

Compound: Oc1c(Br)cc(CN2CCOCC2)c2cccnc12 [Compound 6, 4-((7-bromo-8-hydroxyquinolin-1-ium-5-yl)methyl)morpholin-4-ium chloride]
- EphB4 Inhibition Percent, Inhibition of Association ONLY: 20.0%
- EphB4 Inhibition Percent, Inhibition of Association-Dissociation: 35.9%

Compound: Oc1ccc(CN2CCN(c3ccc(F)cc3F)CC2)c2cccnc12 [Compound 62, 5-((4-(2,4-difluorophenyl)piperazin-1-yl)methyl)quinolin-8-ol]
- EphB4 Inhibition Percent, Inhibition of Association ONLY: 5.0%
- EphB4 Inhibition Percent, Inhibition of Association-Dissociation: 0*%

Compound: OCc1ccc2c(CN3CCOCC3)cc(Br)c(O)c2n1 [Compound 13, 7-bromo-2-(hydroxymethyl)-5-(morpholinomethyl)quinolin-8-ol]
- inhibition at 3.2 µM [1]: 7.6%
- inhibition at 3.2 µM [2]: 0%

Compound: Oc1c(Br)cc(CN2CCOCC2)c2cccnc12 [Compound 5, 7-bromo-5-(morpholinomethyl)quinolin-8-ol]
- inhibition at 3.2 µM [1]: 23%
- inhibition at 3.2 µM [2]: 0%

Compound: Oc1c(Br)cc(CN2CCN(c3ccc(Br)cc3)CC2)c2cccnc12 [Compound 30, 7-bromo-5-((4-(4-bromophenyl)piperazin-1-ium-1-yl)methyl)-8-hydroxyquinolin-1-ium chloride]
- EphB4 Inhibition Percent, Inhibition of Association ONLY: 16.6% and 12.5%
- EphB4 Inhibition Percent, Inhibition of Association-Dissociation: 29.3% and 36.4%

Compound: Oc1ccc(CN2CCN(Cc3ccccc3)CC2)c2cccnc12 [Compound 41, 5-((4-benzylpiperazin-1-yl)methyl)quinolin-8-ol]
- selectivity among EphrinB2-EphB1/B2/B4 (3.2 μM, listed as QPBN): more selective for EphB1
- inhibition at 3.2 µM [1]: 2.6%
- inhibition at 3.2 µM [2]: 0%

Compound: Oc1ccc(CN2CCN(c3ccc(Br)cn3)CC2)c2cccnc12 [Compound 33, 5-((4-(5-bromopyridin-2-yl)piperazin-1-yl)methyl)quinolin-8-ol]
- inhibition at 3.2 µM [1]: 36.9%
- inhibition at 3.2 µM [2]: 20.9%

Compound: COc1ccccc1N1CCN(Cc2cc(I)c(O)c3ncccc23)CC1 [Compound 71, 7-iodo-5-((4-(2-methoxyphenyl)piperazin-1-yl)methyl)quinolin-8-ol]
- inhibition at 3.2 µM [1]: 35.6%
- inhibition at 3.2 µM [2]: 17.5%

Compound: COc1ccc2[nH]cc(C(=O)N3CCOCC3)c2c1 [Compound 63, (5-methoxy-1H-indol-3-yl)(morpholino)methanone]
- inhibition at 3.2 µM [1]: 0%
- inhibition at 3.2 µM [2]: 0%

Compound: COCc1cc(CN2CCN(C)CC2)c(O)c2ncccc12 [Compound 77, 5-(methoxymethyl)-7-((4-methylpiperazin-1-yl)methyl)quinolin-8-ol, reference compound]
- EphB4 Inhibition Percent, Inhibition of Association ONLY: 0*%
- EphB4 Inhibition Percent, Inhibition of Association-Dissociation: 2.7%

Compound: O=C(Cc1ccccc1)Nc1ccc(N2CCN(Cc3ccc(O)c4ncccc34)CC2)cc1 [Compound 51, N-(4-(4-((8-hydroxyquinolin-5-yl)methyl)piperazin-1-yl)phenyl)-2-phenylacetamide]
- inhibition at 3.2 µM [1]: 37.2%
- inhibition at 3.2 µM [2]: 18.1%

Compound: Oc1c(Cl)cc(CN2CCOCC2)c2cccnc12 [Compound 4, 4-((7-chloro-8-hydroxyquinolin-1-ium-5-yl)methyl)morpholin-4-ium chloride]
- EphB4 Inhibition Percent, Inhibition of Association ONLY: 16.8%
- EphB4 Inhibition Percent, Inhibition of Association-Dissociation: 35.5%
